The text below walks through data of patent publication US7361681B2, “Method of treating amytrophic lateral sclerosis using melatonin” (SYGNIS Bioscience GmbH & Co. KG, priority 2003, dated 2008).

Each structure is given as a SMILES string. Several values for one entry are separate records, joined by “and”; a condition that tells them apart may be missing. Identical values can stand only once.

In one series the test system is ALS patients. As to the kind of experiment: pilot program of chronic high-dose melatonin in ALS patients. Format: in vivo, human. An excerpt:
Three ALS patients with an estimated onset of disease 2-4 yr previously, were included in a pilot program in Göttingen, set up to explore potential effects and side-effects of chronic high-dose melatonin in this condition. Intraindividual follow-up (upon entering the study, and after 1, 2, 6, 9 and 13 months of treatment thus far) included physical examination/clinical rating scales (ALS functional rating scale, ALSFRS), pulmonary function test, EMG-NCV, routine laboratory parameters, psychological rating scales, as well as magnetic resonance imaging and MR spectroscopy. Patients received 30-60 mg of melatonin as an oral slow release formulation in the late evening. In addition, they continued their “regular medication” in the morning and at noon (RIUZOLE® 50-100 mg, vitamins C and E, creatine, […]).

The conditions of series [1]: cited from earlier work.
The mark [2] stands for this setting: 30-60 mg melatonin oral slow release in the late evening, up to 13 months.

Experimental for SODG93A-transgenic mice: Rotarod failure is defined to start when mice are no longer able to stay in the rotarod for more than 300 sec (=early disease state).
Shown are days after score 1 (abnormal hindlimb reflex or tremor in at least one extremity or asymmetrical gait) to score 4 (endpoint criteria/death).
Melatonin was continuously applied via drinking water (0.5 mg/ml of water containing 1% of ethanol to enable a saturated solution of melatonin) starting on day 28 of life and continued until death. The vehicle control received water containing 1% of ethanol.

`COc1ccc2[nH]cc(CCNC(C)=O)c2c1` [melatonin, N-acetyl-5-methoxytryptamine]: in the series on ALS patients (setting [2]), the “side effects reported or detected” value is given as “No side effects” and the signs of fatigue result is given as “no signs of fatigue”. In addition, the “tolerability over the entire observation period” value in the series with ALS patients (30-60 mg melatonin oral slow release in the late evening, up to 13 months, plus regular medication) was “well tolerated”. Moreover, the “clinical laboratory parameters (blood cell count, electrolytes, liver enzymes, creatinine, CRP etc.) during melatonin treatment” value in the series with ALS patients (30-60 mg melatonin oral slow release nightly) is reported as “did not show alterations”. In addition, the “clinical rating scale (ALSFRS) one year later” value in the series on ALS patients (three patients, 30-60 mg melatonin oral slow release nightly) was 22 and 11 and 20. Moreover, the “clinical rating scale (ALSFRS) at the start of the trial” value in the series with ALS patients (three patients, baseline) is 34 and 25 and 31. Besides, the “crossing of the blood-brain barrier” value in series [1] (in vivo) is reported as “readily crosses”. The “duration of high plasma levels” value in series [1] (slow release preparations) is reported as “about 6 hr”. For the same compound, the “survival and course of disease (rotarod performance, progression of paresis, weight loss)” value in the series with SODG93A-transgenic mice (0.5 mg/ml in drinking water with 1% ethanol, from day 28 of life until death) is listed as “significant improvement”. Also, in the series on SODG93A-transgenic mice (0.5 mg/ml in drinking water, application of several months), the “adverse effects of systemic melatonin” value is reported as “No adverse effects”. Also, the “days from rotarod failure (no longer able to stay more than 300 sec) to death, versus vehicle” value in the series with SODG93A-transgenic mice (SODG93A mice, n=9-12 per group, FIG. 1) is “significantly more”. Besides, the “days from clinical score 1 to score 4 (endpoint criteria/death), versus vehicle” value in the series with SODG93A-transgenic mice (SODG93A mice, n=9-12 per group, FIG. 2) is on record as “significantly more”.
